Consider four compounds from patent publication US20050261177A1, “Compound” (priority 2001, published 2005).

Read-outs that look alike come from different tables or passages of the source. Numbered stars: 1 amine (or outer) side, 2 acyl side, 3 side chain; on linkers, the order of the positions; unused ones are H or OH. Bridge positions count the residues as written; N and C are the ends. Square brackets hold non-standard residues; d marks the D form. Peptide text beside a SMILES is read from it. * marks the point of attachment. hTyr(3R-OH,3'-OSO3H) = N[C@H](C(=O)O)[C@H](O)Cc1ccc(O)c(OS(=O)(=O)O)c1; X3 = O=C(c1ccc(-c2cn3nc(-c4ccc(OC5CCN(c6ccccc6)CC5)cc4)sc3n2)cc1)*; X2 = COCCCCCCN1CCN(c2ccc(-c3nn4cc(-c5ccc(C(=O)*)cc5)nc4s3)cc2)CC1; X4 = C[C@H]1CC[C@H](N2CCN(c3ccc(-c4ccc(C(=O)*)cc4)cc3)CC2)CC1; Orn(3R-OH,Nδ-CH(CH2OH)2) = N[C@H](C(=O)O)[C@H](O)CCNC(CO)CO; X1 = CCCCCOC1CCN(c2ccc(-c3nnc(-c4ccc(C(=O)*)cc4)s3)cc2)CC1; Orn(4R-OH) = O=C([C@H](C[C@@H](O)CN[*:3])N[*:1])[*:2]; Pro(3S-OH,4S-Me) = C[C@H]1CN[C@H](C(=O)O)[C@H]1O; Hyp = O=C(O)[C@@H]1C[C@@H](O)CN1

This test relates to Candida albicans FP-633. In kind it is cell-based. As to the method: In vitro antimicrobial activity of the object compound of Examples 41, 46, 53 and 56 disclosed later was determined by MICs in mouse serum as described below.
The MICS in mouse serum were determined by the microdilution method using ICR mouse serum buffered with 20 mM HEPES buffer (pH 7.3) as a test medium. Inoculum suspension of 10^6 cells/ml were prepared by a hemocytometric procedure and diluted to obtain an inoculum size of approximately 1.0×10^3 cells/ml. Microplates were incubated at 37° C. for 24 hours in 5% CO2. The MICS were defined as the lowest concentrations at which no visible growth was observed.

Setting [1] is: Candida albicans FP-633, ICR mouse serum buffered with 20 mM HEPES (pH 7.3), 37° C., 24 hours, 5% CO2, lowest concentration with no visible growth.

One may read the MIC as the lowest concentration found to suppress growth. Compound `CCCCCOC1CCN(c2ccc(-c3nnc(-c4ccc(C(=O)N[C@H]5C[C@@H](O)CNC(=O)[C@@H]6[C@@H](O)[C@@H](C)CN6C(=O)[C@H]([C@H](O)CCNC(CO)CO)NC(=O)[C@H]([C@H](O)Cc6ccc(O)c(OS(=O)(=O)O)c6)NC(=O)[C@@H]6C[C@@H](O)CN6C(=O)[C@H]([C@@H](C)O)NC5=O)cc4)s3)cc2)CC1` [Example 56] (X1-[Orn(4R-OH)]T[Hyp][hTyr(3R-OH,3'-OSO3H)][Orn(3R-OH,Nδ-CH(CH2OH)2)][Pro(3S-OH,4S-Me)]; lactam 1-C) returned an MIC (FP-633, 24 h, pH 7.3) below 0.3 µg/mL. `COCCCCCCN1CCN(c2ccc(-c3nn4cc(-c5ccc(C(=O)N[C@H]6C[C@@H](O)CNC(=O)[C@@H]7[C@@H](O)[C@@H](C)CN7C(=O)[C@H]([C@H](O)CCNC(CO)CO)NC(=O)[C@H]([C@H](O)Cc7ccc(O)c(OS(=O)(=O)O)c7)NC(=O)[C@@H]7C[C@@H](O)CN7C(=O)[C@H]([C@@H](C)O)NC6=O)cc5)nc4s3)cc2)CC1` [Example 46] (X2-[Orn(4R-OH)]T[Hyp][hTyr(3R-OH,3'-OSO3H)][Orn(3R-OH,Nδ-CH(CH2OH)2)][Pro(3S-OH,4S-Me)]; lactam 1-C) returned an MIC (FP-633, 24 h, pH 7.3) below 0.3 µg/mL. `C[C@@H](O)[C@@H]1NC(=O)[C@@H](NC(=O)c2ccc(-c3ccc(N4CCN([C@H]5CC[C@H](C)CC5)CC4)cc3)cc2)C[C@@H](O)CNC(=O)[C@@H]2[C@@H](O)[C@@H](C)CN2C(=O)[C@H]([C@H](O)CCNC(CO)CO)NC(=O)[C@H]([C@H](O)Cc2ccc(O)c(OS(=O)(=O)O)c2)NC(=O)[C@@H]2C[C@@H](O)CN2C1=O` [Example 53] (X4-[Orn(4R-OH)]T[Hyp][hTyr(3R-OH,3'-OSO3H)][Orn(3R-OH,Nδ-CH(CH2OH)2)][Pro(3S-OH,4S-Me)]; lactam 1-C): the MIC under setting [1] is below 0.3 µg/mL. Under setting [1], `C[C@@H](O)[C@@H]1NC(=O)[C@@H](NC(=O)c2ccc(-c3cn4nc(-c5ccc(OC6CCN(c7ccccc7)CC6)cc5)sc4n3)cc2)C[C@@H](O)CNC(=O)[C@@H]2[C@@H](O)[C@@H](C)CN2C(=O)[C@H]([C@H](O)CCNC(CO)CO)NC(=O)[C@H]([C@H](O)Cc2ccc(O)c(OS(=O)(=O)O)c2)NC(=O)[C@@H]2C[C@@H](O)CN2C1=O` [Example 41] (X3-[Orn(4R-OH)]T[Hyp][hTyr(3R-OH,3'-OSO3H)][Orn(3R-OH,Nδ-CH(CH2OH)2)][Pro(3S-OH,4S-Me)]; lactam 1-C) registered an MIC below 0.3 µg/mL.
